This note sets out measurements from patent publication US20030166018A1, “Methods for identifying agents that modulate mast cell degranulation” (priority 2002, published 2003).

The assay concerns mast cells. Description: Radioprotection of mast cells from γ-irradiation-induced apoptosis (anti-annexin V and propidium iodide staining). The format is cell-based. The settings on record: cultured mast cells from wild type and SWAP-70 ko/ko mice (similar degree in both); 100 ng/ml SCF, with or without IL-3; irradiated 0-160 Gy; FIG. 3B. From the text: Analysis of peritoneal fluid by Percol gradient centrifugation used step-gradients (increments 0.005) with densities of Percol in PBS, 2% FCS from 1.07 to 1.09. Cells accumulating in the pellet and those banding at 1.09 and 1.085 densities stained intensively with toluidine blue and with berberine sulfate and are regarded as mature mast cells. Assays for apoptosis used staining of cells with propidium iodide or anti annexin V antibodies as described (Ref. 15). Immunofluorescence and Western blotting were performed as described (Ref. 24).
Mast cells from wild type and SWAP-70^ko/ko mice were cultured in the presence or absence of 100 ng/ml SCF, with or without IL-3, and irradiated with various doses (0-160 Gy). Subsequently, apoptosis was measured by staining with anti-annexin V and propidium iodine. […] This elevated sensitivity was confirmed in a series of irradiation experiments in which mast cells were compared to other primary cell types, including thymocytes, preB cells, and fibroblasts. All of these non-mast cell were of identical sensitivity for γ-irradiation regardless of their SWAP-70 genotype. No increased sensitivity of SWAP-70 deficient mast cells for UV irradiation was observed.

For stem cell factor [SCF], the “protection from γ-irradiation-induced apoptosis” value amounted to 3 fold.
